Measured values as given in patent US11510921B2, “Bromocriptine formulations” (VEROSCIENCE LLC, priority 2017, dated 2022).
Counter-ions that a name gives are not always drawn.

Columns and labels:
[1] = Water solubility of formulations versus traditional formulation (Table 11); details: 20 C
Procedure: (§1) Effect of constituents on the stability and solubility of bromocriptine formulations. […] The stability and solubility of the formulations are assessed versus a traditional formulation of bromocriptine mesylate as described in Table 1.

[2] = Heat and humidity stability of formulations versus traditional formulation (Table 11); details: 40 C and 75% RH; short chain saccharide substituted for lactose
Procedure: as §1

[3] = Browning (degradation) reaction of bromocriptine with excipients in heated aqueous suspension; assay type: physicochemical
Procedure: A series of reaction vessels were prepared containing various combinations of bromocriptine mesylate, Mg stearate, and/or lactose, with or without citric acid, in aqueous suspension and reacted at 60° C. for 55 hours. Additionally, samples were prepared wherein the Mg stearate was replaced/substituted with stearic acid.
2 ml of distilled water was added to the samples, which were then mixed by vortexing, placed in a reaction chamber with thermostat set at 50° C. for 24 hours, then (after 24 hours) set at 60° C. The color change of the sample solutions/mixtures were evaluated by comparing the color of the solution with a Standardized Color Chart; the color intensities of the sample solutions/mixtures (from clear to dark brown) was graded at specified time points from time 0 to time 55 hours (see FIG. 2). In FIG. 2, a number “0” indicates a clear solution or white suspension; a number “40” represents the darkest solution/suspension observed.

| Structure (SMILES) | Relative Improvement in Water Solubility Versus Traditional Bromocriptine Mesylate Pharmaceutical Formulation ([1]; fatty acid or triglyceride + short chain saccharide) | Relative Improvement in Water Solubility Versus Traditional Bromocriptine Mesylate Pharmaceutical Formulation ([1]; fatty acid or triglyceride substituted for Mg stearate) | Relative Improvement in Water Solubility Versus Traditional Bromocriptine Mesylate Pharmaceutical Formulation ([1]; short chain saccharide substituted for lactose) | Relative Improvement In Heat & Humidity Stability Versus Traditional Bromocriptine Mesylate Pharmaceutical Formulation [2] | bromocriptine degradation and browning reaction ([3]; addition of citric acid and substitution of Mg stearate with stearic acid) | bromocriptine degradation and browning reaction ([3]; addition of citric acid, Mg stearate alone or Mg stearate and lactose) | browning reaction ([3]; bromocriptine exposed to both Mg stearate and lactose) | browning reaction ([3]; bromocriptine with Mg stearate in aqueous environment, absence of lactose) | bromocriptine degradation ([3]; substitution of Mg stearate with solid castor oil, compared with stearic acid) | bromocriptine degradation and browning reaction ([3]; substitution of Mg stearate with stearic acid, with or without lactose) |
| --- | --- | --- | --- | --- | --- | --- | --- | --- | --- | --- |
| CC(C)C[C@H]1C(=O)N2CCC[C@H]2[C@]2(O)O[C@](NC(=O)[C@@H]3C=C4c5cccc6[nH]c(Br)c(c56)C[C@H]4N(C)C3)(C(C)C)C(=O)N12 [Bromocriptine Mesylate, (5′α)-2-bromo-12′-hydroxy-2′-(1-methylethyl)-5′-(2-methylpropyl)-ergotaman-3′,6′,18-trione monomethanesulfonate salt] | − | − | − | + |  |  |  |  |  |  |
| CC(C)C[C@H]1C(=O)N2CCC[C@H]2[C@]2(O)O[C@](NC(=O)[C@@H]3C=C4c5cccc6[nH]c(Br)c(c56)C[C@H]4N(C)C3)(C(C)C)C(=O)N12 [bromocriptine, (5′α)-2-bromo-12′-hydroxy-2′-(1-methylethyl)-5′-(2-methylpropyl)-ergotaman-3′,6′,18-trione] |  |  |  |  | attenuated bromocriptine degradation and the browning reaction by the greatest magnitude | attenuated bromocriptine degradation and the browning reaction | A more intense browning reaction occurred | a browning product was produced | attenuated bromocriptine degradation to an even greater extent | attenuated bromocriptine degradation and the browning reaction |
